Laboratory results published in US8710043B2, “TRPM8 antagonists and their use in treatments” (Amgen Inc., priority 2011, dated 2014).

Biological target: T1, human TRPM8 (Homo sapiens, UniProt Q7Z2W7)
T1 construct: expressed in transfected cells; host or cells: Chinese hamster ovary (CHO) cells, T-REx tetracycline-inducible system, co-transfected with aequorin
Assay: Luminescence readout assay for measuring intracellular calcium, icilin activation
Type: cell-based
Details: CHO cells expressing human TRPM8, aequorin luminescence, 1 μM icilin activation; read-out: hTRPM8 IC50
Experimental: Luminescence Readout Assay for Measuring Intracellular Calcium.
A stable Chinese hamster ovary cell line expressing human TRPM8 was generated using tetracycline inducible T-REx™ expression system from Invitrogen, Inc. (Carlsbad, Calif.). […] Twenty four hours before the assay, cells were seeded in 96-well plates and TRPM8 expression was induced with 0.5 μg/mL tetracycline. […] Potential antagonists were added 2.5 min prior to the addition of agonist, 1 μM icilin, 100 μM L-menthol, or 1 min prior to the addition of cold buffer (<10° C.). The luminescence was measured by a CCD camera based FLASH-luminometer built by Amgen, Inc. A cooling device attached to FLASH luminometer was used for cold activation.

T1 sequence (Q7Z2W7 whole entry): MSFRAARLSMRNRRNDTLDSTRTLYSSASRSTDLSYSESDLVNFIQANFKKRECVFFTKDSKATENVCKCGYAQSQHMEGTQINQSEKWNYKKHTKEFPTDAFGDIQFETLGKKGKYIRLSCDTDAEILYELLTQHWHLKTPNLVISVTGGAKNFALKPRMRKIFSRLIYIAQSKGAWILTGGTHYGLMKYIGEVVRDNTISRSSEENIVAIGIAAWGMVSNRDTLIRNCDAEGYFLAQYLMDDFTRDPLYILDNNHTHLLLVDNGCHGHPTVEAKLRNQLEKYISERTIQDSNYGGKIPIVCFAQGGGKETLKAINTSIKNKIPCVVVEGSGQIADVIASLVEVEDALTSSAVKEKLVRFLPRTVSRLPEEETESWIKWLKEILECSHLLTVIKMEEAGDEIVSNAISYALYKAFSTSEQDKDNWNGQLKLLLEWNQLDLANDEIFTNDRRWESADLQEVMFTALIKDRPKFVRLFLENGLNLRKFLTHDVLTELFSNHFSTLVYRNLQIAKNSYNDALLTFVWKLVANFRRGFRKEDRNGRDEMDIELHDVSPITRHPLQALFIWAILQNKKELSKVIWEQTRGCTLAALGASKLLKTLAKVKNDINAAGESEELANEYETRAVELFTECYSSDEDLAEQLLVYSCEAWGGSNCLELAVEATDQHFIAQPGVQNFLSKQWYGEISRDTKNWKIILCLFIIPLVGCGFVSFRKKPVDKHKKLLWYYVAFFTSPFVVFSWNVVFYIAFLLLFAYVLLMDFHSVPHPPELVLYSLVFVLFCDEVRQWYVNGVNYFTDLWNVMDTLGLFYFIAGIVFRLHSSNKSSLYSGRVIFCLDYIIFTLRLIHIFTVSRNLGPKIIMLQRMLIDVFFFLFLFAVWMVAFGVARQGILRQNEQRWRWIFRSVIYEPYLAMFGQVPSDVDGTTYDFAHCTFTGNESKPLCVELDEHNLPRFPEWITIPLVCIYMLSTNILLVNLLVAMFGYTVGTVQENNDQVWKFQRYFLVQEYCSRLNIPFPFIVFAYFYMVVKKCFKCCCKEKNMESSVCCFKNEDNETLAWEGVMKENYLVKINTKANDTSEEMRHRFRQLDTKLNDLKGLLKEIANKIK

## CO[C@@](C(=O)N[C@@H](c1ccc(C(F)(F)F)cc1)c1ncccc1C(F)(F)F)(c1ccccc1)C(F)(F)F [Example 237, 3,3,3-trifluoro-2-methoxy-2-phenyl-N-((S)-(4-(trifluoromethyl)phenyl)(3-(trifluoromethyl)pyridin-2-yl)methyl)propanamide]
  IC50: 733 nM

## O=C1Cc2ccc(C(=O)N[C@@H](c3ccc(C(F)(F)F)cc3)c3ncccc3F)cc2N1 [Example 71, (S)-N-((3-fluoropyridin-2-yl)(4-(trifluoromethyl)phenyl)methyl)-2-oxoindoline-6-carboxamide]
  IC50: 9.2 nM

## O=C(N[C@@H](c1ccc(C(F)(F)F)cc1)c1ccccn1)c1ccc2c(c1)NCCC2 [Example 276, (S)—N-(Pyridin-2-yl(4-(trifluoromethyl)phenyl)methyl)-1,2,3,4-tetrahydroquinoline-7-carboxamide]
  IC50: 177 nM

## O=C(N[C@@H](c1ccc(C(F)(F)F)cc1)c1ncccc1C(F)(F)F)c1cccnn1 [Example 31, (S)-N-((4-(trifluoromethyl)phenyl)(3-(trifluoromethyl)pyridin-2-yl)methyl)pyridazine-3-carboxamide]
  IC50: 162 nM

## O=C(N[C@@H](c1ccc(OC(F)(F)F)c(F)c1)c1ncccc1F)c1c[nH]c(=O)c(F)c1 [Example 400, (S)-5-fluoro-N-((3-fluoro-4-(trifluoromethoxy)phenyl)(3-fluoropyridin-2-yl)methyl)-6-oxo-1,6-dihydropyridine-3-carboxamide]
  IC50: 6.9 nM

## Cn1cc(C(=O)N[C@@H](c2ccc(OC(F)(F)F)cc2)c2ccccn2)ccc1=O [Example 378, (S)-1-methyl-6-oxo-N-(pyridin-2-yl(4-(trifluoromethoxy)phenyl)methyl)-1,6-dihydropyridine-3-carboxamide]
  IC50: 50.3 nM

## O=C(N[C@@H](c1ccc(C(F)(F)F)cc1)c1ncccc1C(F)(F)F)c1ccc2nnnn2c1 [Example 311, (S)-N-((4-(trifluoromethyl)phenyl)(3-(trifluoromethyl)pyridin-2-yl)methyl)tetrazolo[1,5-a]pyridine-6-carboxamide]
  IC50: 27.8 nM

## CC(C)c1ccc(C(=O)N[C@@H](c2ccc(C(F)(F)F)cc2)c2ncccc2C(F)(F)F)cc1 [Example 127, (S)-4-isopropyl-N-((4-(trifluoromethyl)phenyl)(3-(trifluoromethyl)pyridin-2-yl)methyl)benzamide]
  IC50: 584 nM

## Cn1cc(C(=O)N[C@@H](c2ccc(OC(F)(F)F)c(F)c2)c2ccccn2)ccc1=O [Example 294, (S)-N-((3-fluoro-4-(trifluoromethoxy)phenyl)(pyridin-2-yl)methyl)-1-methyl-6-oxo-1,6-dihydropyridine-3-carboxamide]
  IC50: 14.5 nM

## COc1ccc(C(=O)N[C@@H](c2ccc(F)cc2)c2ncccc2C(F)(F)F)cn1 [Example 124, (S)-N-((4-fluorophenyl)(3-(trifluoromethyl)pyridin-2-yl)methyl)-6-methoxynicotinamide]
  IC50: 190 nM

## O=C(N[C@@H](c1ccc(C(F)(F)F)cc1)c1ncccc1C(F)(F)F)c1ccc2c(c1)NCCC2 [Example 274, (S)—N-((4-(Trifluoromethyl)phenyl)(3-(trifluoromethyl)pyridin-2-yl)methyl)-1,2,3,4-tetrahydroquinoline-7-carboxamide]
  IC50: 198 nM

## O=C(NC(c1ccc(C(F)(F)F)cc1)c1ncccc1F)c1ccccc1 (centres unmarked) [Example 193, N-((3-fluoropyridin-2-yl)(4-(trifluoromethyl)phenyl)methyl)benzamide]
  IC50: 34.8 nM

## Cn1cc(C(=O)N[C@@H](c2ccc(Cl)c(F)c2)c2ncccc2F)ccc1=O [Example 345, (S)-N-((4-chloro-3-fluorophenyl)(3-fluoropyridin-2-yl)methyl)-1-methyl-6-oxo-1,6-dihydropyridine-3-carboxamide]
  IC50: 102 nM

## O=C(N[C@@H](c1ccc(C(F)(F)F)cc1)c1ncccc1C(F)(F)F)c1ccc2ncsc2c1 [Example 239, (S)-N-((4-(trifluoromethyl)phenyl)(3-(trifluoromethyl)pyridin-2-yl)methyl)benzo[d]thiazole-6-carboxamide]
  IC50: 16 nM

## Cn1cc(C(=O)N[C@@H](c2cc(F)cc(F)c2)c2ncccc2F)ccc1=O [Example 330, (S)-N-((3,5-difluorophenyl)(3-fluoropyridin-2-yl)methyl)-1-methyl-6-oxo-1,6-dihydropyridine-3-carboxamide]
  IC50: 2680 nM

## COc1cnccc1C(=O)N[C@@H](c1ccc(C(F)(F)F)cc1)c1ncccc1C(F)(F)F [Example 48, (S)-3-methoxy-N-((4-(trifluoromethyl)phenyl)(3-(trifluoromethyl)pyridin-2-yl)methyl)isonicotinamide]
  IC50: 21.5 nM

## O=C(Cc1cccnc1)N[C@@H](c1ccc(C(F)(F)F)cc1)c1ncccc1C(F)(F)F [Example 238, (S)-2-(pyridin-3-yl)-N-((4-(trifluoromethyl)phenyl)(3-(trifluoromethyl)pyridin-2-yl)methyl)acetamide]
  IC50: 547 nM

## O=C(N[C@@H](c1ccc(OC(F)(F)F)c(F)c1)c1ncccc1F)c1ccc[nH]c1=O [Example 416, (S)-N-((3-fluoro-4-(trifluoromethoxy)phenyl)(3-fluoropyridin-2-yl)methyl)-2-oxo-1,2-dihydropyridine-3-carboxamide]
  IC50: 54 nM

## C[C@H](O)Cn1cc(C(=O)N[C@@H](c2ccc(C(F)(F)F)cc2)c2ncccc2F)ccc1=O [Example 300, N-((S)-(3-fluoropyridin-2-yl)(4-(trifluoromethyl)phenyl)methyl)-1-((S)-2-hydroxypropyl)-6-oxo-1,6-dihydropyridine-3-carboxamide]
  IC50: 69.7 nM

## Cc1cc(C(=O)N[C@@H](c2ccc(OC(F)(F)F)c(F)c2)c2ncccc2F)c[nH]c1=O [Example 403, (S)-N-((3-fluoro-4-(trifluoromethoxy)phenyl)(3-fluoropyridin-2-yl)methyl)-5-methyl-6-oxo-1,6-dihydropyridine-3-carboxamide]
  IC50: 17.8 nM

## Cc1ccc([C@H](NC(=O)c2ccc(=O)[nH]c2)c2ncccc2F)cc1F [Example 334, (S)-N-((3-fluoro-4-methylphenyl)(3-fluoropyridin-2-yl)methyl)-6-oxo-1,6-dihydropyridine-3-carboxamide]
  IC50: 103 nM

## O=C(N[C@@H](c1ccc(Cl)c(Cl)c1)c1ncccc1F)c1ccc(=O)[nH]c1 [Example 250, (S)-N-((3,4-dichlorophenyl)(3-fluoropyridin-2-yl)methyl)-6-oxo-1,6-dihydropyridine-3-carboxamide 2,2,2-trifluoroacetate]
  IC50: 19.2 nM

## Cc1c[nH]c(C(=O)N[C@@H](c2ccc(OC(F)(F)F)c(F)c2)c2ncccc2F)n1 [Example 388, (S)-N-((3-fluoro-4-(trifluoromethoxy)phenyl)(3-fluoropyridin-2-yl)methyl)-4-methyl-1H-imidazole-2-carboxamide 2,2,2-trifluoroacetate]
  IC50: 2980 nM

## O=C(N[C@@H](c1ccc(C(F)(F)F)cc1)c1ncccc1F)c1ccc2c(Cl)ccnc2c1 [Example 120, (S)-4-chloro-N-((3-fluoropyridin-2-yl)(4-(trifluoromethyl)phenyl)methyl)quinoline-7-carboxamide 2,2,2-trifluoroacetate]
  IC50: 59.4 nM

## O=C1CCc2cc(C(=O)N[C@@H](c3ccc(OC(F)(F)F)c(F)c3)c3ncccc3F)ccc2N1 [Example 351, (S)-N-((3-fluoro-4-(trifluoromethoxy)phenyl)(3-fluoropyridin-2-yl)methyl)-2-oxo-1,2,3,4-tetrahydroquinoline-6-carboxamide]
  IC50: 15.9 nM

## O=C(N[C@@H](c1ccc(C(F)(F)F)c(F)c1)c1ncccc1C(F)(F)F)c1ccc2nccnc2c1 [Example 108, (S)-N-((3-fluoro-4-(trifluoromethyl)phenyl)(3-(trifluoromethyl)pyridin-2-yl)methyl)quinoxaline-6-carboxamide]
  IC50: 24.1 nM

## O=C(N[C@@H](c1ccc(OC(F)(F)F)c(F)c1)c1ncccc1F)c1cnc2[nH]c(=O)oc2c1 [Example 427, (S)—N-((3-Fluoro-4-(trifluoromethoxy)phenyl)(3-fluoropyridin-2-yl)methyl)-2-oxo-2,3-dihydrooxazolo[4,5-b]pyridine-6-carboxamide]
  IC50: 14 nM

## COc1ccncc1C(=O)N[C@@H](c1ccc(C(F)(F)F)cc1)c1ncccc1C(F)(F)F [Example 55, (S)-4-methoxy-N-((4-(trifluoromethyl)phenyl)(3-(trifluoromethyl)pyridin-2-yl)methyl)nicotinamide]
  IC50: 30.4 nM

## O=C(N[C@@H](c1ccc(C(F)(F)F)cc1)c1ncccc1Br)c1ccc2cccnc2c1 [Example 195, (S)—N-((3-bromopyridin-2-yl)(4-(trifluoromethyl)-phenyl)methyl)quinoline-7-carboxamide]
  IC50: 50.6 nM

## O=C1Cc2ccc(C(=O)N[C@@H](c3ccc(OC(F)(F)F)cc3)c3ncccc3F)cc2N1 [Example 90, (S)-N-((3-fluoropyridin-2-yl)(4-(trifluoromethoxy)phenyl)methyl)-2-oxoindoline-6-carboxamide]
  IC50: 6.2 nM

## CC#Cc1cccnc1[C@@H](NC(=O)c1ccc2cccnc2c1)c1ccc(C(F)(F)F)cc1 [Example 97, (S)-N-((3-(prop-1-yn-1-yl)pyridin-2-yl)(4-(trifluoromethyl)phenyl)methyl)quinoline-7-carboxamide 2,2,2-trifluoroacetate]
  IC50: 119 nM

## O=C(N[C@@H](c1ccc(C(F)(F)F)cc1)c1ncccc1C(F)(F)F)c1ccc(Br)cn1 [Example 205, (S)-5-bromo-N-((4-(trifluoromethyl)phenyl)(3-(trifluoromethyl)pyridin-2-yl)methyl)picolinamide]
  IC50: 140 nM
